Reference: article PMC10544018 (Journal of Medicinal Chemistry, 2023)

Columns and labels:
VCB protein = molecular target: T1, VCB protein (Homo sapiens, UniProt P40337); assay: Competitive fluorescence polarization (FP) binding assay, displacement of FAM-labeled HIF-1α peptide; settings: for Kd: dissociation constant, determined by FP, mean ± S.E.M., back-calculated from IC50; for IC50: mean IC50 values obtained from the FP assay, read-out: IC50 ± S.E.M, FP assay
T1 construct: A plasmid containing pVHL54–213 with an N-terminal His6 tag; His6 (N, cleaved yes); made in house; host or cells: Escherichia coli BL21 (DE3)
Method: Binding of a ligand to the HIF binding site of VHL displaces a fluorescein-labeled, 19-mer HIF-1α oligopeptide, leading to a change in polarization of emitted light upon excitation of the competing fluorescent probe.
All components were dissolved from stock solutions using 100 mM Bis–Tris, 100 mM NaCl, 1 mM DTT, pH 7.0, to yield a final assay volume of 15 μL. DMSO was added as appropriate to ensure a final concentration of 2% (v/v). Control wells containing VCB and JC9 with no compound (zero displacement), or JC9, in the absence of protein (maximum displacement) were also included to allow for normalization. Percentage displacement values were obtained by normalization of controls and were plotted against log[compound]. The IC50 values were determined for each titration using non-linear regression analysis with Prism GraphPad (Table S1). Dissociation constants Kd for the compound–VCB interaction were back-calculated from the measured IC50 values by using a displacement binding model as described.[16],[64]

[1] = Log D7.4 measurement by chromatographic method; format: physicochemical; settings: experimental distribution coefficient at pH 7.4; read-out: e log D7.4
Method: (§1) Both were experimentally obtained employing HPLC-based protocols.[39],[40] […] PPB values were determined in view of how they could impact future pharmacokinetic studies of compounds as VHL inhibitors, or once conjugated into bifunctional PROTACs, for which PPB can be a limiting factor.
The determination of the log D7.4 values was performed by a chromatographic method as described previously.[41],[62] […] Subsequently, the mean retention times (n = 2) of the analytes were taken to calculate their log D7.4 values.

human serum albumin = human serum albumin (Homo sapiens, UniProt P02768); assay: PPB studies on HSA HPLC column; format: in vitro ADME; settings: CHIRALPAK HSA HPLC column (human serum albumin); experimentally determined percentage of the compound bound to human serum albumin
Method: as §1
PPB was estimated by correlating the logarithmic retention times of the analytes on a […] HSA 50 × 3 mm, 5 μm column with the literature-known % PPB values (converted into log K values) of the following drugs: warfarin, ketoprofen, budesonide, nizatidine, indomethacin, acetylsalicylic acid, carbamazepine, piroxicam, nicardipine, and cimetidine.[63] Samples were dissolved in MeCN/DMSO 9:1 to achieve a final concentration of 0.5 mg/mL. The mobile phase A was 50 mM ammonium acetate adjusted to pH 7.4 with 10% NaOH, while mobile phase B was iPrOH. […] After injecting 3 μL of the sample, a linear gradient from 100% A to 30% iPrOH in 5.4 min was applied. From 5.4 to 18 min, 30% iPrOH was kept, followed by switching back to 100% A in 1.0 min and a re-equilibration time of 6 min.

SMILES	Kd (VCB protein) [nM]	IC50 (VCB protein) [nM]	chromatographic logD [1]	fraction unbound at 0.5 mg/mL (human serum albumin)
COc1cc(-c2scnc2C)cc(OC)c1CNC(=O)[C@@H]1C[C@@H](O)CN1C(=O)[C@@H](NC(=O)C1(C#N)CC1)C(C)(C)C [Compound 11, (2S,4R)-1-((S)-2-(1-Cyanocyclopropane-1-carboxamido)-3,3-dimethylbutanoyl)-N-(2,6-dimethoxy-4-(4-methylthiazol-5-yl)benzyl)-4-hydroxypyrrolidine-2-carboxamide]	6240 ± 620	32100 ± 2150	2	0.12
Cc1ncsc1-c1cc(Cl)c(CNC(=O)[C@@H]2C[C@@H](O)CN2C(=O)[C@@H](NC(=O)C2(C#N)CC2)C(C)(C)C)c(Cl)c1 [Compound 13, (2S,4R)-1-((S)-2-(1-Cyanocyclopropane-1-carboxamido)-3,3-dimethylbutanoyl)-N-(2,6-dichloro-4-(4-methylthiazol-5-yl)benzyl)-4-hydroxypyrrolidine-2-carboxamide]	8150 ± 680	42000 ± 1920	2.4	0.09
Cc1ncsc1-c1ccc(CNC(=O)[C@@H]2C[C@@H](O)CN2C(=O)[C@@H](NC(=O)C2(C#N)CC2)C(C)(C)C)cc1F [Compound 8, (2S,4R)-1-((S)-2-(1-Cyanocyclopropane-1-carboxamido)-3,3-dimethylbutanoyl)-N-(3-fluoro-4-(4-methylthiazol-5-yl)benzyl)-4-hydroxypyrrolidine-2-carboxamide]	97 ± 11	444 ± 18	1.9	0.12
Cc1ncsc1-c1cc(Cl)c(CNC(=O)[C@@H]2C[C@@H](O)CN2C(=O)[C@@H](NC(=O)C2(C#N)CC2)C(C)(C)C)cc1Cl [Compound 17, (2S,4R)-1-((S)-2-(1-Cyanocyclopropane-1-carboxamido)-3,3-dimethylbutanoyl)-N-(2,5-dichloro-4-(4-methylthiazol-5-yl)benzyl)-4-hydroxypyrrolidine-2-carboxamide]	883 ± 68	4560 ± 208	2.5	0.07
Cc1cc(-c2scnc2C)c(F)cc1CNC(=O)[C@@H]1C[C@@H](O)CN1C(=O)[C@@H](NC(=O)C1(F)CC1)C(C)(C)C [Compound 28, (2S,4R)-N-(5-Fluoro-2-methyl-4-(4-methylthiazol-5-yl)benzyl)-1-((S)-2-(1-fluorocyclopropane-1-carboxamido)-3,3-dimethylbutanoyl)-4-hydroxypyrrolidine-2-carboxamide]	80 ± 23	310 ± 65	2.3	0.1
Cc1ncsc1-c1ccc(CNC(=O)[C@@H]2C[C@@H](O)CN2C(=O)[C@@H](NC(=O)C2(C#N)CC2)C(C)(C)C)c2ccccc12 [Compound 22, (2S,4R)-1-((S)-2-(1-Cyanocyclopropane-1-carboxamido)-3,3-dimethylbutanoyl)-4-hydroxy-N-((4-(4-methylthiazol-5-yl)naphthalen-1-yl)methyl)pyrrolidine-2-carboxamide]	397 ± 70	2020 ± 271	2.3	0.07
Cc1ncsc1-c1cc(F)c(CNC(=O)[C@@H]2C[C@@H](O)CN2C(=O)[C@@H](NC(=O)C2(C#N)CC2)C(C)(C)C)c(F)c1 [Compound 12, (2S,4R)-1-((S)-2-(1-Cyanocyclopropane-1-carboxamido)-3,3-dimethylbutanoyl)-N-(2,6-difluoro-4-(4-methylthiazol-5-yl)benzyl)-4-hydroxypyrrolidine-2-carboxamide]	2130 ± 150	11000 ± 747	1.9	0.14
Cc1cc(CNC(=O)[C@@H]2C[C@@H](O)CN2C(=O)[C@@H](NC(=O)C2(C#N)CC2)C(C)(C)C)ccc1-c1scnc1C [Compound 6, (2S,4R)-1-((S)-2-(1-Cyanocyclopropane-1-carboxamido)-3,3-dimethylbutanoyl)-4-hydroxy-N-(3-methyl-4-(4-methylthiazol-5-yl)benzyl)pyrrolidine-2-carboxamide]	496 ± 62	2260 ± 73	2	0.11
COc1cc(-c2scnc2C)ccc1CNC(=O)[C@@H]1C[C@@H](O)CN1C(=O)[C@@H](NC(=O)C1(C#N)CC1)C(C)(C)C [Compound 3, (2S,4R)-1-((S)-2-(1-Cyanocyclopropane-1-carboxamido)-3,3-dimethylbutanoyl)-4-hydroxy-N-(2-methoxy-4-(4-methylthiazol-5-yl)benzyl)pyrrolidine-2-carboxamide]	183 ± 22	837 ± 35	1.9	0.12
Cc1ncsc1-c1ccc(CNC(=O)[C@@H]2C[C@@H](O)CN2C(=O)[C@@H](NC(=O)C2(C#N)CC2)C(C)(C)C)c(F)c1 [Compound 4, (2S,4R)-1-((S)-2-(1-Cyanocyclopropane-1-carboxamido)-3,3-dimethylbutanoyl)-N-(2-fluoro-4-(4-methylthiazol-5-yl)benzyl)-4-hydroxypyrrolidine-2-carboxamide]	297 ± 34	1360 ± 56	1.9	0.12
Cc1ncsc1-c1cc2c(cc1F)[C@@H](NC(=O)[C@@H]1C[C@@H](O)CN1C(=O)[C@@H](NC(=O)C1(F)CC1)C(C)(C)C)CCC2 [Compound 37, (2S,4R)-N-((S)-7-Fluoro-6-(4-methylthiazol-5-yl)-1,2,3,4-tetrahydronaphthalen-1-yl)-1-((S)-2-(1-fluorocyclopropane-1-carboxamido)-3,3-dimethylbutanoyl)-4-hydroxypyrrolidine-2-carboxamide]	1040 ± 240	4400 ± 1060	2.6	0.08
Cc1ncsc1-c1ccc(CNC(=O)[C@@H]2C[C@@H](O)CN2C(=O)[C@@H](NC(=O)C2(C#N)CC2)C(C)(C)C)c(F)c1F [Compound 19, (2S,4R)-1-((S)-2-(1-Cyanocyclopropane-1-carboxamido)-3,3-dimethylbutanoyl)-N-(2,3-difluoro-4-(4-methylthiazol-5-yl)benzyl)-4-hydroxypyrrolidine-2-carboxamide]	1450 ± 180	7450 ± 624	2.2	0.11
Cc1ncsc1-c1cc(F)c(CNC(=O)[C@@H]2C[C@@H](O)CN2C(=O)[C@@H](NC(=O)C2(C#N)CC2)C(C)(C)C)cc1F [Compound 16, (2S,4R)-1-((S)-2-(1-Cyanocyclopropane-1-carboxamido)-3,3-dimethylbutanoyl)-N-(2,5-difluoro-4-(4-methylthiazol-5-yl)benzyl)-4-hydroxypyrrolidine-2-carboxamide]	281 ± 46	1440 ± 198	2	0.12
Cc1ncsc1-c1ccc2c(c1)CC[C@@H]2NC(=O)[C@@H]1C[C@@H](O)CN1C(=O)[C@@H](NC(=O)C1(C#N)CC1)C(C)(C)C [Compound 34, (2S,4R)-1-((S)-2-(1-Cyanocyclopropane-1-carboxamido)-3,3-dimethylbutanoyl)-4-hydroxy-N-((S)-5-(4-methylthiazol-5-yl)-2,3-dihydro-1H-inden-1-yl)pyrrolidine-2-carboxamide]	3920 ± 420	15900 ± 934	2.2	0.1
